Drawing on PubChem BioAssay AID330 (DTP/NCI, 2004), this text covers T/C for 21 molecules.

Values joined by “and” are separate entries in the source; they are usually repeats but may differ in a detail not shown here. Equal values may be shown once. Toxic doses and inconclusive results are not listed.

This assay relates to P388 leukemia ip, CD2F1 mice, survival T/C. Description: NCI In Vivo Anticancer Drug Screen. Data for tumor model P388 Leukemia (intraperitoneal) in CD2F1 (CDF1) mice. To be noted: endpoint: median survival time, higher = longer survival. The essentials: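 Mice carrying the transplanted tumor received test compound or vehicle. Survival was recorded in each group, and the value is the treated-group measurement divided by that of the vehicle-treated control group.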

The mark [1] stands for this setting: dose: 50.0 mg/kg/injection, schedule: Q01DX009 (ip), vehicle: Klucel (hydroxypropylcellulose) (HPC).
Setting [2] is: dose: 100.0 mg/kg/injection, schedule: Q01DX009 (ip), vehicle: Klucel (hydroxypropylcellulose) (HPC).
[3] abbreviates: dose: 12.5 mg/kg/injection, schedule: Q01DX009 (ip), vehicle: saline.
Where [4] appears, read: dose: 25.0 mg/kg/injection, schedule: Q01DX009 (ip), vehicle: saline.
Where [5] appears, read: dose: 50.0 mg/kg/injection, schedule: Q01DX009 (ip), vehicle: saline.
Setting [6] is: dose: 60.0 mg/kg/injection, schedule: Q01DX005 (ip), vehicle: Klucel (hydroxypropylcellulose) (HPC).
[7] abbreviates: dose: 120.0 mg/kg/injection, schedule: Q01DX005 (ip), vehicle: Klucel (hydroxypropylcellulose) (HPC).
Setting [8] is: dose: 25.0 mg/kg/injection, schedule: Q01DX009 (ip), vehicle: saline with Tween-80.
[9] abbreviates: dose: 50.0 mg/kg/injection, schedule: Q01DX009 (ip), vehicle: saline with Tween-80.
Setting [10] is: dose: 100.0 mg/kg/injection, schedule: Q01DX009 (ip), vehicle: saline with Tween-80.
[11] abbreviates: dose: 50.0 mg/kg/injection, schedule: Q01DX005 (ip), vehicle: saline with Tween-80.
[12] abbreviates: dose: 60.0 mg/kg/injection, schedule: Q01DX005 (ip), vehicle: saline with Tween-80.
[13] abbreviates: dose: 120.0 mg/kg/injection, schedule: Q01DX005 (ip), vehicle: saline with Tween-80.
Setting [14] is: dose: 240.0 mg/kg/injection, schedule: Q01DX005 (ip), vehicle: saline with Tween-80.

Take `CCCCCC(=O)SCC(=O)OCC(=O)[C@]1(O)Cc2c(O)c3c(c(O)c2[C@@H](OC2CC(N)C(O)C(C)O2)C1)C(=O)c1c(OC)cccc1C3=O` (stereo partly specified): the T/C is 169 % of control (dose: 0.78 mg/kg/injection, schedule: Q01DX009 (ip), vehicle: water); 174 % of control and 179 % of control (dose: 1.56 mg/kg/injection, schedule: Q01DX009 (ip), vehicle: water); 194 % of control and 209 % of control (dose: 3.13 mg/kg/injection, schedule: Q01DX009 (ip), vehicle: water); 104 % of control (dose: 6.25 mg/kg/injection, schedule: Q01DX009 (ip), vehicle: water).
On to `COc1cc2c3cc1Oc1c(O)c(OC)cc4c1[C@H](Cc1ccc(O)c(c1)Oc1ccc(cc1)C[C@H]3N(C)CC2)N(C)CC4`, for which the T/C (dose: 37.5 mg/kg/injection, schedule: Q01DX009 (ip), vehicle: Klucel (hydroxypropylcellulose) (HPC)) was 98 % of control.
For `C1CC2(CC3(C1)SCCS3)SCCS2`, the T/C under setting [1] is 94 % of control; the T/C under setting [2] was 101 % of control; the T/C (dose: 200.0 mg/kg/injection, schedule: Q01DX009 (ip), vehicle: Klucel (hydroxypropylcellulose) (HPC)) is 101 % of control.
Regarding `CCCCCCCCOS(=O)(=O)c1ccc([N+](C)(C)C)cc1`, the T/C reads like this: under setting [3], 103 % of control; under setting [4], 105 % of control; under setting [5], 110 % of control.
For the molecule `CN(C)CCSC1=Nc2ccc(Cl)cc2C(c2ccccc2Cl)N(C)C1` (stereo unspecified), the T/C is 100 % of control under setting [6] and 100 % of control under setting [7].
`CN(C)c1ccc2c(=O)cc[nH]c2c1`: the T/C was 96 % of control (dose: 50.0 mg/kg/injection, schedule: Q01DX005 (ip), vehicle: saline); 100 % of control (dose: 100.0 mg/kg/injection, schedule: Q01DX005 (ip), vehicle: saline); 100 % of control (dose: 200.0 mg/kg/injection, schedule: Q01DX005 (ip), vehicle: saline).
For the molecule `CCCC(OC(C)=O)c1coc(C)c1` (stereo unspecified), the T/C reads like this: (dose: 100.0 mg/kg/injection, schedule: Q01DX001 (ip), vehicle: saline) 104 % of control; (dose: 200.0 mg/kg/injection, schedule: Q01DX001 (ip), vehicle: saline) 100 % of control; (dose: 400.0 mg/kg/injection, schedule: Q01DX001 (ip), vehicle: saline) 104 % of control.
As for `CO[C@H]1/C=C/O[C@@]2(C)Oc3c(C)c(O)c4c(O)c(c(/C=N/N5CCN(C)CC5)c(O)c4c3C2=O)NC(=O)/C(C)=C\C=C\[C@H](C)[C@H](O)[C@@H](C)[C@@H](O)[C@@H](C)[C@H](OC(C)=O)[C@@H]1C`, the T/C reads like this: (dose: 25.0 mg/kg/injection, schedule: Q01DX009 (ip), vehicle: other) 92 % of control; under setting [8], 100 % of control; (dose: 25.0 mg/kg/injection, schedule: Q04DX003 (ip), vehicle: distilled water + Tween-80) 106 % of control; (dose: 25.0 mg/kg/injection, schedule: Q04DX003 (ip), vehicle: other) 99 % of control and 97 % of control; (dose: 50.0 mg/kg/injection, schedule: Q01DX009 (ip), vehicle: other) 98 % of control; under setting [9], 100 % of control. Moreover, the T/C is, setting by setting: (dose: 50.0 mg/kg/injection, schedule: Q04DX003 (ip), vehicle: distilled water + Tween-80) 105 % of control and 110 % of control; (dose: 50.0 mg/kg/injection, schedule: Q04DX003 (ip), vehicle: other) 106 % of control and 109 % of control; (dose: 100.0 mg/kg/injection, schedule: Q01DX009 (ip), vehicle: other) 89 % of control; under setting [10], 100 % of control; (dose: 100.0 mg/kg/injection, schedule: Q04DX003 (ip), vehicle: distilled water + Tween-80) 96 % of control and 97 % of control; (dose: 100.0 mg/kg/injection, schedule: Q04DX003 (ip), vehicle: other) 107 % of control and 115 % of control. In addition, the T/C by setting is: (dose: 100.0 mg/kg/injection, schedule: Q04DX003 (ip), vehicle: saline sonified) 95 % of control; (dose: 200.0 mg/kg/injection, schedule: Q01DX009 (ip), vehicle: other) 107 % of control; (dose: 200.0 mg/kg/injection, schedule: Q04DX003 (ip), vehicle: distilled water + Tween-80) 106 % of control; (dose: 200.0 mg/kg/injection, schedule: Q04DX003 (ip), vehicle: other) 110 % of control; (dose: 200.0 mg/kg/injection, schedule: Q04DX003 (ip), vehicle: saline sonified) 104 % of control; (dose: 400.0 mg/kg/injection, schedule: Q04DX003 (ip), vehicle: distilled water + Tween-80) 103 % of control. Further, for the setting “dose: 400.0 mg/kg/injection, schedule: Q04DX003 (ip), vehicle: saline sonified”, the T/C was 109 % of control.
Take `CCO/C=N/NC(=O)CNC(=O)C=[N+]=[N-]`: the T/C (dose: 180.0 mg/kg/injection, schedule: Q01DX009 (ip), vehicle: water) was 172 % of control.
Consider `O=C1NC(=O)C2C3CCC(C12)C1C2C(=O)NC(=O)C2C31` (stereo unspecified), for which the T/C runs as follows: (dose: 12.5 mg/kg/injection, schedule: Q01DX005 (ip), vehicle: saline with Tween-80) 91 % of control; (dose: 25.0 mg/kg/injection, schedule: Q01DX005 (ip), vehicle: saline with Tween-80) 93 % of control; under setting [11], 101 % of control and 91 % of control.
As for `N#CC1=C(N)OC(C2CC2)=C(C#N)C1c1ccco1` (stereo unspecified), the T/C under setting [6] was 88 % of control and the T/C under setting [7] was 88 % of control.
In the case of `CCN(CC)CCN(C(=O)C1c2ccccc2Oc2ccccc21)C1CCCCC1`, the T/C (dose: 12.5 mg/kg/injection, schedule: Q01DX005 (ip), vehicle: Klucel (hydroxypropylcellulose) (HPC)) is 101 % of control; the T/C (dose: 25.0 mg/kg/injection, schedule: Q01DX005 (ip), vehicle: Klucel (hydroxypropylcellulose) (HPC)) is 100 % of control; the T/C (dose: 50.0 mg/kg/injection, schedule: Q01DX005 (ip), vehicle: Klucel (hydroxypropylcellulose) (HPC)) is 98 % of control and 92 % of control.
On to `Nc1ccc(C(=O)CCCN2CCCCC2)cc1`, for which the T/C was 104 % of control under setting [3]; 91 % of control (dose: 12.5 mg/kg/injection, schedule: Q04DX003 (ip), vehicle: saline); 95 % of control under setting [4]; 95 % of control (dose: 25.0 mg/kg/injection, schedule: Q04DX003 (ip), vehicle: saline); 90 % of control under setting [5]; 91 % of control (dose: 50.0 mg/kg/injection, schedule: Q04DX003 (ip), vehicle: saline).
For the molecule `COc1ccc(CCNC(=O)C(=O)c2c[nH]c3ccccc23)cc1OC`, the T/C runs as follows: under setting [11], 90 % of control; (dose: 100.0 mg/kg/injection, schedule: Q01DX005 (ip), vehicle: saline with Tween-80) 88 % of control; (dose: 200.0 mg/kg/injection, schedule: Q01DX005 (ip), vehicle: saline with Tween-80) 89 % of control.
In the case of `NC(=S)c1ccc(Br)cc1`, the T/C under setting [1] was 97 % of control and the T/C under setting [2] was 104 % of control.
As to `COC(=O)C1=C(C)NC(c2ccc(OC)cc2OC)C(C(=O)OC)=C1C` (stereo unspecified), the T/C runs as follows: under setting [12], 105 % of control; under setting [13], 102 % of control; under setting [14], 97 % of control.
The corresponding values for `COC(=O)c1cc(OC)c2cccnc2c1Nc1ccccc1` are 102 % of control, 102 % of control and 100 % of control.
`CSC(SC)(SC)C(=O)N(C)C`: the T/C reads like this: under setting [8], 95 % of control; under setting [9], 93 % of control; under setting [10], 96 % of control.
As to `C=CCc1cc2c(cc1Cc1ccc(OC)cc1)OCO2`, the T/C by setting is: (dose: 50.0 mg/kg/injection, schedule: Q01DX005 (ip), vehicle: distilled water + alcohol) 109 % of control; (dose: 100.0 mg/kg/injection, schedule: Q01DX005 (ip), vehicle: distilled water + alcohol) 104 % of control; (dose: 200.0 mg/kg/injection, schedule: Q01DX005 (ip), vehicle: distilled water + alcohol) 109 % of control.
With `COc1ccc(C2Cc3cc(OC)c(OC)cc3C(c3ccccc3)N2)cc1OC` (stereo unspecified), the T/C reads like this: under setting [12], 86 % of control; under setting [13], 88 % of control; under setting [14], 89 % of control.
In the case of `Fc1cccc(-c2nn[nH]n2)c1`, the T/C runs as follows: (dose: 100.0 mg/kg/injection, schedule: Q04DX002 (ip), vehicle: saline with Tween-80) 102 % of control; (dose: 200.0 mg/kg/injection, schedule: Q04DX002 (ip), vehicle: saline with Tween-80) 107 % of control; (dose: 400.0 mg/kg/injection, schedule: Q04DX002 (ip), vehicle: saline with Tween-80) 116 % of control.
